This is an account of results in patent EP3492067A1, “TYPE-17 COLLAGEN PRODUCTION PROMOTER” (Tomoike Industrial (H.K.) Limited, priority 2016, dated 2018).

In brackets after ≈: the same amount, converted by molar mass.

The test system of data set [1] is Type-17 collagen. The settings on record: eft-400 skin model.
Description: (§1) A tissue containing DMSO was prepared as a control.
(§2) The lysates of cultured tissue were subjected to western blotting using an anti-Type-17 collagen antibody (ab95123, Abcam).
A further data set in a line: physchem. The note with it: distilled water.
Data set [2] deals with Type-17 collagen. Briefly: Western blotting of Type-17 collagen protein production in skin model cells. The settings on record: Homo sapiens, 168 h, read-out: expression amount of Type-17 collagen, increase in comparison with the control.
Description: as §1, §2
The nature of data set [3]: Water solubility test in distilled water.
Description: (§3) A test for confirming water solubility of the pterostilbene glycoside described above was performed. More specifically, solubility in 100 ml of distilled water at room temperature was measured. Pterostilbene (aglycone) was used as a control.

Description for physchem: as §3

For `COc1cc(/C=C/c2ccc(O[C@@H]3O[C@H](CO)[C@@H](O[C@H]4O[C@H](CO)[C@@H](O)[C@H](O)[C@H]4O)[C@H](O)[C@H]3O)cc2)cc(OC)c1` [pterostilbene diglycoside], in the data set with Type-17 collagen [1], the “amount of Type-17 collagen contained in skin model cells, increase compared with the control (Ctrl)” value worked out at 1.2 times. Also, the solubility in “physchem” is ~13 µg/mL (≈ 22.4 µM).
For the compound `COc1cc(/C=C/c2ccc(O[C@@H]3O[C@H](CO)[C@@H](O)[C@H](O)[C@H]3O)cc2)cc(OC)c1` [pterostilbene monoglycoside], in the data set with Type-17 collagen [2], the fold induction at 25 µM was ~1.4 and the fold induction at 50 µM is ~1.6. Further, the solubility in “physchem” is ~60 µg/mL (≈ 143 µM).
Take `COc1cc(/C=C/c2ccc(O[C@@H]3O[C@H](CO)[C@@H](O[C@H]4O[C@H](CO)[C@@H](O[C@H]5O[C@H](CO)[C@@H](O)[C@H](O)[C@H]5O)[C@H](O)[C@H]4O)[C@H](O)[C@H]3O)cc2)cc(OC)c1` [pterostilbene triglycoside]: the “amount of Type-17 collagen contained in skin model cells, increase compared with the control (Ctrl)” value in the data set with Type-17 collagen [1] was 1.6 times. Besides, in the data set “physchem”, the solubility was ~300000 µg/mL (≈ 404000 µM).
In the case of `COc1cc(/C=C/c2ccc(O)cc2)cc(OC)c1` [pterostilbene, Pterostilbene], in the data set with Type-17 collagen [2], the fold induction at 25 µM was ~1.1 and the fold induction at 50 µM was ~1.4. In data set [3], the solubility was ~5 µg/mL (≈ 19.5 µM).
